Measurements taken from US6828334B2, “Fenofibrate-cyclodextrin inclusion complexes and their pharmaceutical composition” (USV Limited, priority 2002, dated 2004).

Experiment: in-vitro dissolution, rotating blade method at 75 rpm according to USP24
Type: physicochemical

- % release of fenofibrate (water with 0.025 M sodium lauryl sulfate, 1200 ml, 5 min): 8-10%
- % release of fenofibrate (water with 0.025 M sodium lauryl sulfate, 1200 ml, 10 min): 16-22%
- % release of fenofibrate (water with 0.025 M sodium lauryl sulfate, 1200 ml, 20 min): 24-30%
- % release of fenofibrate (water with 2% by weight polysorbate-80, 1200 ml, 5 min): 4-8%
- % release of fenofibrate (water with 2% by weight polysorbate-80, 1200 ml, 10 min): 19-22%
- % release of fenofibrate (water with 2% by weight polysorbate-80, 1200 ml, 20 min): 30-32%
- % release of fenofibrate (water with 2% by weight polysorbate-80, 1200 ml, 30 min): 36-38%
Structure (SMILES): CC(C)OC(=O)C(C)(C)Oc1ccc(C(=O)c2ccc(Cl)cc2)cc1 [fenofibrate, 2-[4-(4-chlorobenzoyl)phenoxy]-2-methyl propionate]
